Data set [1] deals with rat. The data set is described as follows: Acute toxicity in the oral rat, LD50. The class given is in vivo.
The test system of data set [2] is rat. The data set is described as follows: Acute toxicity in the rat by inhalation, LD50. Type of data set: in vivo. Conditions: 4 hours.
A further data set is described as follows: Inflammability in air. Type of data set: physicochemical. Conditions: marked § flammable.

Structures are written as SMILES. Where only a bound is given, the exact number is not on record here.

`FC(Cl)(Cl)Cl` [CFC 11, trichloro-fluoromethane]: in the data set with rat [1], the “Acute toxicity in the oral rat, LD50” value is reported as above 1000 ppmv/4 hours. The “Acute toxicity in the rat by inhalation, LD50” value (from here on “Acute toxicity in the rat”) in the data set on rat [2] stood at 26200 ppmv/4 hours.
As for `CC(F)(Cl)Cl` [HCFC 141b, 1,1-dichloro-1-fluoroethane], in the data set with rat [1], the “Acute toxicity in the oral rat, LD50” value is given as above 5000 ppmv/4 hours. In addition, the “Acute toxicity in the rat” value in the data set on rat [2] stood at 62000 ppmv/4 hours. Moreover, in “Inflammability in air”, the “Inflammability in air, % volume” value is listed as 7.6-17.7§ % volume.
For the compound `FC(F)OC(F)(F)C(F)(F)OC(F)F` [HCF2OCF2CF2OCF2H, 1-difluoromethoxy-1,1,2,2-tetrafluoroethyl difluoromethyl ether], the “Acute toxicity in the oral rat, LD50” value in the data set on rat [1] is above 5000 ppmv/4 hours. Moreover, the “Acute toxicity in the rat” value in the data set with rat [2] was above 32000 ppmv/4 hours.
Take `FC(F)OC(F)(F)OC(F)F` [HCF2OCF2OCF2H, difluoromethoxy-bis(difluoromethyl ether)]: the “Acute toxicity in the oral rat, LD50” value in the data set with rat [1] is above 5000 ppmv/4 hours. The “Acute toxicity in the rat” value with rat [2] is given as above 32000 ppmv/4 hours.

(Values after US6458862B1, “Foaming agents” (priority 1998, dated 2002).)
